Measured values as given in the supplement of paper PMC9938120.

Tests used:
Assay in all cases: drug sensitivity score (DSS3, normalised partial AUC of % inhibition dose-response) (DSS (score)); higher = more sensitive (stronger inhibition of viability); extreme values may be limits of the assay
[1] = system: FMOC17 (patient-derived low-grade serous ovarian cancer cells); conditions: 72 h; library: FO5A; assay format: 2D, 384-well, CellTiter-Glo
Summary of the method: (§1)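 Cells were dispensed onto 384-well flat clear-bottom plates already holding compounds at five concentrations over a 10,000-fold range, using patient-derived ovarian cancer cells at passage under 10. Incubation lasted 72 h at 37 °C in 5% CO2, after which CellTiter-Glo viability data were processed in Breeze. Higher drug sensitivity scores, each a partial area under the percent-inhibition dose-response curve divided by the log of the upper asymptote, mean more sensitive cells.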

[2] = system: FMOC11 (patient-derived high-grade serous ovarian cancer cells); conditions: 72 h; library: FO5A; assay format: 2D, 384-well, CellTiter-Glo
Summary of the method: as §1

[3] = system: FMOC22 (patient-derived mucinous ovarian cancer cells); conditions: 72 h; library: FO5A; assay format: 2D, 384-well, CellTiter-Glo
Summary of the method: as §1

[4] = system: FMOC24 (patient-derived high-grade serous ovarian cancer cells); conditions: 72 h; library: FO5A; assay format: 2D, 384-well, CellTiter-Glo
Summary of the method: as §1

[5] = system: FMOC28 (patient-derived low-grade serous ovarian cancer cells); conditions: 72 h; library: FO5A; assay format: 2D, 384-well, CellTiter-Glo
Summary of the method: as §1

[6] = system: FMOC02_2 (patient-derived low-grade serous ovarian cancer cells); conditions: 72 h; library: FO5A; assay format: 2D, 384-well, CellTiter-Glo
Summary of the method: as §1

[7] = system: FMOC02_3 (patient-derived low-grade serous ovarian cancer cells); conditions: 72 h; library: FO5A; assay format: 2D, 384-well, CellTiter-Glo
Summary of the method: as §1

[8] = system: FMOC04 (patient-derived high-grade serous ovarian cancer cells); conditions: 72 h; library: FO5A; assay format: 2D, 384-well, CellTiter-Glo
Summary of the method: as §1

[9] = system: FMOC25_2 (patient-derived low-grade serous ovarian cancer cells); conditions: 72 h; library: FO5A; assay format: 2D, 384-well, CellTiter-Glo
Summary of the method: as §1

[10] = system: FMOC25_1 (patient-derived low-grade serous ovarian cancer cells); conditions: 72 h; library: FO4B; assay format: 2D, 384-well, CellTiter-Glo
Summary of the method: as §1

[11] = system: FMOC09 (patient-derived high-grade serous ovarian cancer cells); conditions: 72 h; library: FO5A; assay format: 2D, 384-well, CellTiter-Glo
Summary of the method: as §1

[12] = system: FMOC27 (patient-derived low-grade serous ovarian cancer cells); conditions: 72 h; library: FO5A; assay format: 2D, 384-well, CellTiter-Glo
Summary of the method: as §1

[13] = system: FMOC06 (patient-derived mucinous ovarian cancer cells); conditions: 72 h; library: FO5A; assay format: 2D, 384-well, CellTiter-Glo
Summary of the method: as §1

[14] = system: FMOC02_1 (patient-derived low-grade serous ovarian cancer cells); conditions: 72 h; library: FO5A; assay format: 2D, 384-well, CellTiter-Glo
Summary of the method: as §1

[15] = system: FMOC03 (patient-derived mucinous ovarian cancer cells); conditions: 72 h; library: FO5A; assay format: 2D, 384-well, CellTiter-Glo
Summary of the method: as §1

[16] = system: FMOC14 (patient-derived high-grade serous ovarian cancer cells); conditions: 72 h; library: FO5A; assay format: 2D, 384-well, CellTiter-Glo
Summary of the method: as §1

SMILES	drug sensitivity score [1]	drug sensitivity score [2]	drug sensitivity score [3]	drug sensitivity score [4]	drug sensitivity score [5]	drug sensitivity score [6]	drug sensitivity score [7]	drug sensitivity score [8]	drug sensitivity score [9]	drug sensitivity score [10]	drug sensitivity score [11]	drug sensitivity score [12]	drug sensitivity score [13]	drug sensitivity score [14]	drug sensitivity score [15]	drug sensitivity score [16]
CC(C)Cn1cnc2c(N)nc3ccccc3c21 [Imiquimod]	0	0	0	0	0.9	0	0	0	0	0	0	0	0.5	0	0	0
CNC(=O)[C@@H](NC(=O)[C@H](CC(C)C)[C@H](O)C(=O)NO)C(C)(C)C [Marimastat]	0	0.4	0	0	0	0	0	0	3.6	0.6	0.1	0	0	0.9	0	0
O=C(Nc1cccnc1)N1CCC(Cc2cccc(Oc3ccc(C(F)(F)F)cn3)c2)CC1 [PF-3845]	1.6	0	1.5	0.4	2.5	3.3	1.2	0	0	1.7	0	1.9	0.1	1.1	2.3	0
CS(=O)(=O)CCNCc1ccc(-c2ccc3ncnc(Nc4ccc(OCc5cccc(F)c5)c(Cl)c4)c3c2)o1 [Lapatinib]	3	3.3	0	0.05	4	6.9	4.6	0	3.7	3.6	2.9	4.3	1	5.4	5.3	0.5
C[C@@H]1CCN(C(=O)CC#N)C[C@@H]1N(C)c1ncnc2[nH]ccc12 [Tofacitinib]	0	0	0	0.5	0.7	0.7	0.1	0	0.3	0	0	0	0.7	0	0	0
Cn1nnc2c(C(N)=O)ncn2c1=O [Temozolomide]	0.2	0	0	0	0.8	0	0	0	0	0	0	0	0	0	0	0
CCN(CC)CCNC(=O)c1c(C)[nH]c(/C=C2\C(=O)Nc3ccc(F)cc32)c1C [Sunitinib]	0.1	0	0	0	0	0.9	0.6	0	0.5	0	0	0	0	2.3	0	0
Cn1ncnc1[C@H]1c2n[nH]c(=O)c3cc(F)cc(c23)N[C@@H]1c1ccc(F)cc1 [Talazoparib]	2.7	1.4	3.5	4.1	0.7	2.3	5.7	0.25	5.7	4.8	0.9	5.5	2.2	7	0.1	0.7
COc1cc2c(N3CCN(C(=O)Nc4ccc(OC(C)C)cc4)CC3)ncnc2cc1OCCCN1CCCCC1 [Tandutinib]	0	0	0	0.75	1.4	0	0	0	0	0	0	0	0	0	0	0
Cc1c(F)cc(C(=O)NC2CC2)cc1-c1ccc(C(=O)NCC(C)(C)C)cn1 [Losmapimod]	0	1.4	0	0	0	0	0	0	0	0	0	0	1	0.1	0	0
CC1(C)CCC(CN2CCN(c3ccc(C(=O)NS(=O)(=O)c4ccc(NCC5CCOCC5)c([N+](=O)[O-])c4)c(Oc4cnc5[nH]ccc5c4)c3)CC2)=C(c2ccc(Cl)cc2)C1 [Venetoclax]	0	0	0	1.8	0	0	0	0	0	0	0	0.3	0	0	0	0
CNc1nc(-c2ccc3c(N)n[nH]c3c2)cc(N2C[C@@H](C(=O)NC3CCCCC3)CC[C@H]2C)n1	0	0	0	0	6	8.7	0.8	0.5	5.7	6.9	0	1.4	4.2	3.8	0	0.6
